According to publication PMC10927086, “Effects of structurally distinct human HDAC6 and HDAC6/HDAC8 inhibitors against S. mansoni larval and adult worm stages” (PLOS Neglected Tropical Diseases, 2024):
Where “and” joins values, the source holds several entries; their conditions need not be identical. Equal entries are not always repeated. Where two headings read alike, the source gives them in different places.

Experiments:
[1] = test system: adult S. mansoni worm pairs; test: Viability assay on adult worm pairs (phenotype scoring 0-3); assay type: cell-based, Schistosoma mansoni; conditions: for viability at 20 µM / viability at 50 µM: Schistosoma mansoni
Description: For studies on adult worm pairs, mice infected 7–8 weeks previously with double sex cercariae were euthanized with intraperitoneal injections of Tiletamine/Zolazepam ([…]) + Xylazine (100 mg/kg) and adult parasites were harvested by reversed perfusion of the hepatic portal system and mesenteric veins. Adult worms were cultured in DMEM containing phenol red and with 4500 mg/l glucose, 2 mM L-glutamine, 100 U/ml penicillin, 100 μg/ml streptomycin, 1x antibiotic-antimycotic reagent, and 10% heat inactivated FBS. Viability assays on adult worm pairs were based on a phenotyping scoring assessment as previously described. Briefly, five adult pairs were incubated with selected compounds in 3 ml of DMEM complete medium. For each compound, three experiments were performed, and compounds were given to parasites only once without medium addition and/or replacement. DMSO (vehicle)-treated worms were used as control samples. Viability was monitored under a Leica Model MZ12 stereomicroscope for 7 days and viability scores (0–3) were assigned. […] For each sample, the total score was determined by the ratio of the sum of worm scores for the total number of worms.
Fig 3 Schistosome viability assays. Panel A: Representative dose-response curves of the inhibitors on NTS. The y-axis indicates the percentage of viability normalized against DMSO (100%) and gambogic acid 10 μM (0%). […] Panel B: dose-response curve of the inhibitors on adult schistosome worm pairs. DMSO (vehicle) was used as negative control (100% viability), the indicated compounds were assayed at 5 (full triangle) 10 (inverted full triangle), 20 (full square) and 50 μM (full circle). Data are expressed as a % severity score (viability) relative to DMSO. Each point represents the average ± standard deviation of three independent experiments.
Parasites were treated initially at 20 μM and 50 μM; their impact on viability was monitored for 7 days upon treatment. […] Viability of each schistosome was scored from 3 (no effect) to 0 (severe effects) by assigning daily worm phenotype scores (plate attachment, movement, color, gut peristalsis, tegument damage) as previously described (Fig 3B).

[2] = test system: histone proteins of S. mansoni adult worm pairs; test: Western blot, histone acetylation (anti-acetylated lysine) in adult worm pairs; assay type: cell-based, Schistosoma mansoni; conditions: 48 h and 72 h, partially lethal and sub-lethal doses
Description: (§1) Ten adult pairs were treated with selected HDAC inhibitors for 48 h or 72 h at partially lethal and sublethal concentrations. Compound concentrations were selected based on the viability curve, Trichostatin A (TSA), a pan-HDAC inhibitor, and NF2503 a SmHDAC8 inhibitor chemically characterized by the presence of a hydroxamate-based MBG (metal binding group) coupled to a tricyclic thieno[3,2-b]indole core as capping group, previously described were used as positive controls in the experiments; DMSO (vehicle) was the negative control. Parasites were processed as previously described and samples were analyzed by 15% SDS-PAGE, and immunoblotting was performed using α-tubulin DM1A (1:5000), α-acetylated-lysine (1:4000) and α-acetylated tubulin (1:3000) antibodies. A Chemidoc XRS Bio-Rad with a chemiluminescent camera and Bio-Rad ImageLab 4.0 software were used for the acquisition and analysis of images. Each Western blot analysis was calibrated by Ponceau staining.
(§2) TSA, a known pan- class I and class II HDAC -inhibitor, and NF2503, a HDAC inhibitor previously shown to impact histone acetylation in adult worm pairs were used as positive controls.
(§3) Fig 6 Effects of selected compounds on histones and tubulin acetylation. […]

[3] = test system: tubulin of S. mansoni adult worm pairs; test: Western blot, tubulin acetylation in adult worm pairs; assay type: cell-based, Schistosoma mansoni; conditions: 48 h and 72 h, partially lethal and sub-lethal doses
Description: as §1, §2, §3

[4] = MTT cytotoxicity assay on BJ fibroblasts; assay type: cell-based; conditions: human, BJ fibroblast cells, compounds 100-0.78 μM, GA 10-0.078 μM, 2 independent experiments
Description: The NCTC clone 929 (L-929) murine fibroblast isolated from subcutaneous connective tissue (ATCC-CCL-1) were cultured in Dulbecco’s Modified Eagle Medium (DMEM) supplemented with 10 mM Hepes (pH 6.98–7.30), 1 mM l-glutamine, 100 U/ml of penicillin/streptomycin (BioWhittaker, Lonza, EuroClone SpA), and heat-inactivated 10% FBS. All cells were cultured at 37°C in a 5% CO2 humidified incubator.
The MTT method was employed as previously described to determine the viability of fibroblast cell lines. Briefly, cells seeded into 96-well plates at a density of 20,000 cells/well after overnight incubation, were exposed to selected compounds at the indicated concentrations for 24–72 h. Next they were gently washed, incubated with MTT (bromuro di 3-(4,5-dimetiltiazol-2-il)-2,5-diphenyltetrazolium) for 4 h, and processed for color detection with DMSO. The resulting purple solution was spectrophotometrically measured at 570 nm using a Varioskan Lux instrument and Skanit software (Thermo Fisher Scientific).
The optical density values for both assays were expressed as a percentage of cell survival and normalized with the value of cells treated with vehicle (DMSO), and the data were analyzed using GraphPad Prism v9.5.1 software (San Diego, CA, USA).
The cytotoxicity of the hit compounds was assessed in two independent experiments on murine L929 and human BJ fibroblasts at 24 h by MTT assays. Vehicle (DMSO) and Gambogic acid (GA) were used as negative and positive control respectively. The compounds show a safe profile on both cell lines (S2 Table).
The IC50(μM) shown was calculated by dose-response curves of the compounds on murine L929 and human BJ fibroblast cells. […] The data are representative of 2 independent experiments. Gambogic acid (GA) and vehicle (DMSO) were used as positive and negative controls respectively. (DOCX)

hHDAC1 = conditions: recombinant enzyme, previously reported; ref [25]; cited from earlier work
hHDAC6 = conditions: recombinant enzyme, previously reported; ref [25]; cited from earlier work
hHDAC8 = conditions: recombinant enzyme, previously reported; ref [25]; cited from earlier work
MDCK cell = test system: MDCK cell; parameters: method as in earlier work; conditions: QikProp; >500 great; ref [25]; cited from earlier work
[5] = 24 h, 20 µM, day 1, read-out: % viability of adult worm pairs relative to DMSO, Mean
[6] = 24 h, 20 µM, day 1, read-out: % viability of adult worm pairs relative to DMSO, single experiments
[7] = 24 h, 50 µM, day 1, read-out: % viability of adult worm pairs relative to DMSO, Mean
[8] = 72 h, 20 µM, day 3, read-out: % viability of adult worm pairs relative to DMSO, Mean
[9] = 72 h, 20 µM, day 3, read-out: % viability of adult worm pairs relative to DMSO, single experiments
[10] = 72 h, 50 µM, day 3, read-out: % viability of adult worm pairs relative to DMSO, Mean
[11] = 120 h, 20 µM, day 5, read-out: % viability of adult worm pairs relative to DMSO, Mean
[12] = 120 h, 20 µM, day 5, read-out: % viability of adult worm pairs relative to DMSO, single experiments
[13] = 120 h, 50 µM, day 5, read-out: % viability of adult worm pairs relative to DMSO, Mean
[14] = 168 h, 20 µM, day 7, read-out: % viability of adult worm pairs relative to DMSO, Mean
[15] = 168 h, 20 µM, day 7, read-out: % viability of adult worm pairs relative to DMSO, single experiments
[16] = 168 h, 50 µM, day 7, read-out: % viability of adult worm pairs relative to DMSO, Mean

Which results are given for `Cn1c(=O)c(OCc2ccc(C(=O)NO)cc2)c(C2CCCCC2)c2ccccc21` [NF2836]?
% viability of adult worm pairs relative to DMSO, single experiments ([1]; 20 µM, day 1, 20 µM): 100%; % viability of adult worm pairs relative to DMSO, single experiments ([1]; 20 µM, day 3, 20 µM): 100% and 96%; % viability of adult worm pairs relative to DMSO, single experiments ([1]; 20 µM, day 5, 20 µM): 100% and 96%; % viability of adult worm pairs relative to DMSO, single experiments ([1]; 20 µM, day 7, 20 µM): 100%; % viability of adult worm pairs relative to DMSO, single experiments ([1]; 50 µM, day 3, 50 µM): 80% and 60% and 92.59% and 77%; % viability of adult worm pairs relative to DMSO, single experiments ([1]; 50 µM, day 5, 50 µM): 63% and 43% and 42.59% and 67%; viability at 20 µM [1, 5]: 94.3%; viability at 20 µM [1, 6]: 83%; viability at 50 µM [1, 7]: 62.1%; viability at 20 µM [1, 8]: 98.7%; viability at 20 µM [1, 9]: 100%; viability at 50 µM [1, 10]: 77.4%; viability at 20 µM [1, 11]: 98.7%; viability at 20 µM [1, 12]: 100%; viability at 50 µM [1, 13]: 53.9%; viability at 20 µM [1, 14]: 94.3%; viability at 20 µM [1, 15]: 100%; viability at 50 µM [1, 16]: 53.2%; histone acetylation vs vehicle (DMSO) [2]: only slightly impacts histone acetylation; tubulin acetylation vs vehicle (DMSO) [3]: highest increase in tubulin acetylation; IC50 at 24 h [4]: > 100000 nM; IC50 (hHDAC1): 3000 ± 200 nM; IC50 (hHDAC6): 33 ± 2.6 nM; IC50 (hHDAC8): 1600 ± 300 nM; QPPMDCK predicted apparent MDCK cell permeability (MDCK cell): 11.753 ×10⁻⁶ cm/s

What does the source list for `CCN(CC)Cc1ccc(Cn2c(=O)c(OCc3ccc(C(=O)NO)cc3)c(-c3cccnc3)c3ccccc32)cc1` [NF2838]?
% viability of adult worm pairs relative to DMSO, single experiments ([1]; 20 µM, day 1, 20 µM): 93.3% and 96%; % viability of adult worm pairs relative to DMSO, single experiments ([1]; 20 µM, day 3, 20 µM): 86.6% and 96%; % viability of adult worm pairs relative to DMSO, single experiments ([1]; 20 µM, day 5, 20 µM): 90% and 100%; % viability of adult worm pairs relative to DMSO, single experiments ([1]; 20 µM, day 7, 20 µM): 85% and 100%; % viability of adult worm pairs relative to DMSO, single experiments ([1]; 50 µM, day 1, 50 µM): 62% and 73%; % viability of adult worm pairs relative to DMSO, single experiments ([1]; 50 µM, day 3, 50 µM): 67% and 70%; % viability of adult worm pairs relative to DMSO, single experiments ([1]; 50 µM, day 7, 50 µM): 67%; viability at 20 µM [1, 5]: 96.4%; viability at 20 µM [1, 6]: 100%; viability at 50 µM [1, 7]: 67.5%; viability at 20 µM [1, 8]: 94.2%; viability at 20 µM [1, 9]: 100%; viability at 50 µM [1, 10]: 58.5%; viability at 50 µM ([1]; 72 h, 50 µM, day 3, read-out: % viability of adult worm pairs relative to DMSO, single experiments): 50%; viability at 20 µM [1, 11]: 96.7%; viability at 20 µM [1, 12]: 100%; viability at 50 µM [1, 13]: 50%; viability at 20 µM [1, 14]: 95%; viability at 20 µM [1, 15]: 100%; viability at 50 µM [1, 16]: 58.5%; viability at 50 µM ([1]; 168 h, 50 µM, day 7, read-out: % viability of adult worm pairs relative to DMSO, single experiments): 50%; histone acetylation vs vehicle (DMSO) [2]: more strongly impact histone acetylation; tubulin acetylation vs vehicle (DMSO) [3]: increased acetylation; IC50 at 24 h [4]: > 100000 nM; IC50 (hHDAC1): 300 ± 100 nM; IC50 (hHDAC6): 11.5 ± 1.5 nM; IC50 (hHDAC8): 500 ± 200 nM; QPPMDCK predicted apparent MDCK cell permeability (MDCK cell): 2.431 ×10⁻⁶ cm/s
